2 molecules from patent US10662210B2, “Compositions and methods comprising osmium for the treatment of cancers” (Massachusetts Institute of Technology, priority 2014, dated 2020) can be followed below.

SMILES strings stand for the structures. Read-outs that look alike come from different tables or passages of the source.

In one data set the test system is A2780 cells. As to the kind of experiment: Cytotoxicity MTT assay with pathway and cell death inhibitors. The note with it: for IC50: 72 hours incubation; for effect of chloroquine and IM-54 on potency: inhibitors 10 μM; for effect of p53 inhibitors on toxicity: pifithrin-α and pifithrin-μ, both 10 μM. The class given is cell-based, human. How it is done: This finding led to the investigation of the possibility that 4 may induce endoplasmic reticulum (ER) stress. Co-administration of 4 and salubrinal (10 μM), a known ER stress inhibitor, reduced the cytotoxicity of 4 in A2780 cells. […] To further validate the ER as the main target for 4, the expression of proteins related to the unfolded protein response (UPR) was monitored. […] ER membrane expansion is widely associated with ER stress. With this fact in mind the ER size of A2780 cells upon incubation with 4 were examined using fluorescence microscopy. Relative to untreated controls (FIG. 3B), cells exposed to 4 (10 μM) for 4 h had 25.1% larger ER coverage (FIG. 3C). The ER size relative to the whole cell of the untreated controls was about 30% and the ER size relative to the whole cell of the treated samples was about 55%.
Having established the intracellular targets of 2 and 4, the role of p53, a cell cycle and apoptosis regulator, in the cellular responses evoked was investigated. […] Therefore, p53 played a fundamental role in coordinating the cellular response to 2-induced DNA damage. […] (FIG. 13). […] To relate p53 to potency, cytotoxicity studies were conducted in the presence of p53 inhibitors pifithrin-α and pifithrin-μ. (both 10 μM). […] The IC50 values of compound 2 in the absence and presence of p53 inhibitor pifithrin-μ after 72 hours incubation was about 2 μM and about 30 μM, respectively.
The colorimetric MTT assay was used to determine the toxicity of the osmium complexes and cisplatin. Cells (2×10^3) were seeded in each well of a 96-well plate. After incubating the cells overnight, various concentrations of test compound (0.3-100 μM) were added and incubated for 72 h (total volume 200 μL). The test compounds were prepared as 10 mM solutions in DMSO and diluted using media. The final concentration of DMSO in each well was 0.5% and this amount was present in the untreated control as well. Cisplatin was prepared as a 5 mM solution in PBS and diluted further using media. After 72 h, the medium was removed, 200 μL of a 0.4 mg/mL solution of MTT in DMEM or RPMI was added, and the plate was incubated for an additional 1-2 h. The DMEM/MTT or RPMI/MTT mixture was aspirated and 200 μL of DMSO was added to dissolve the resulting purple formazan crystals. The absorbance of the solution wells was read at 550 nm. Absorbance values were normalized to DMSO-containing control wells and plotted as concentration of test compound versus % cell viability. IC50 values were interpolated from the resulting dose dependent curves. The reported IC50 values are the average from at least three independent experiments, each of which consisted of six replicates per concentration level.
For specific pathway and cell death inhibitor assays, inhibitors of p53 (pifithrin-α, 10 μM and pifithrin-μ, 10 μM), ER stress (salubrinal, 10 μM), necrosis (IM-54, 10 μM), and autophagocytosis (chloroquine, 10 μM) were added to cells and incubated for 0-1 h prior to treatment with the test compounds.
On the technique in general: Formazan colour is commonly taken as a measure of viable cells.

Data set [1] in a line: Water-octanol partition coefficient (log P), shake-flask method with GF-AAS. The note with it: room temperature, 50 μM. In kind it is physicochemical. As to the method:
Those of ordinary skill in the art would be knowledgeable of methods of determining the water-octanol partition coefficient of compounds. For example, the log P of a compound may be obtained using the shake-flask method and graphite furnace atomic absorption spectroscopy (GF-AAS). Briefly, in the shake-flask method, octanol is pre-saturated with water by overnight incubation with shaking of a biphasic mixture of the two at room temperature. A portion of 0.5 mL water containing 50 μM of the given compound is incubated with the pre-saturated octanol (0.5 mL) in a 1.5 mL tube. The tube is shaken at room temperature for 3 hours. The two phases are separated by centrifugation and the osmium content (concentration) in each phase is determined by GFAAS. The log P is then calculated using the formula below: log P=log 10[(concentration of osmium in the octanol layer)/(concentration of osmium in the water layer)].
The log P values were obtained using the shake-flask method and graphite furnace atomic absorption spectroscopy (GF-AAS). Octanol used in this experiment was pre-saturated with water by overnight incubation with shaking of a biphasic mixture of the two at room temperature. A portion of 0.5 mL water containing 50 μM of the given compound was incubated with the pre-saturated octanol (0.5 mL) in a 1.5 mL tube. The tube was shaken at room temperature for 3 h. The two phases were separated by centrifugation and the osmium content (concentration) in each phase was determined by GFAAS. All the experiments were carried out in triplicate. The log P was then calculated using the formula below: Log P=log 10[(conc. of osmium in the octanol layer)/(conc. of osmium in the water layer)].

Another data set relates to pUC19 plasmid DNA. As to the kind of experiment: Agarose gel electrophoresis of plasmid DNA. The class given is biochemical. As to conditions: 24 h, 37° C. How it is done:
The osmium compounds were hypothesized to induce cell death through DNA interactions. Therefore, the interaction of 2 or 4 with pUC19 plasmid DNA was investigated using gel electrophoresis; the results of which are as shown in FIG. 6. As the concentration of 2 increased, there was a clear increase in the amount of nicked circular, and a concomitant decrease in the amount of supercoiled, plasmid DNA. At concentrations >250 μM, the bands in the gel smeared and then disappeared. […] The DNA binding kinetics of 2 and 4 were studied by measuring the amount of osmium bound to precipitated ct-DNA; the results of which are as shown in FIG. 7. The half-life of this reaction for 2 was 2 hours.
Plasmid DNA (pUC19) was kindly donated. The DNA binding ability of the osmium complexes was determined by monitoring the conversion of supercoiled plasmid DNA (form I) to nicked circular DNA (form II) using agarose gel electrophoresis. To probe the effect of Os-complex concentration, solutions containing […] of DNA and 0, 10, 20, 50, 100, 250, 500, and 1000 μM of the osmium complexes with a total reaction volume of 15 μL were incubated at 37° C. for 24 h. […] The DNA bands were analysed under UV light using a Flor-S reader (BioRad).

For orientation: IC50 means the concentration at which inhibition is half-maximal. For the molecule `[N]#[Os]1([Cl])([Cl])([Cl])[N]2C=CC=c3ccc4c(c32)[N]1C=CC=4` [Complex 2, OsN(1,10-phenanthroline)Cl3], the IC50 in the data set on A2780 cells (read-out: IC50 in the absence of pifithrin-α) was around 4.5 µM; in the data set on A2780 cells (read-out: IC50 in the absence of pifithrin-μ) it was around 2 µM; in the data set on A2780 cells (pifithrin-α 10 μM, read-out: IC50 in the presence of pifithrin-α), around 2 µM; in the data set with A2780 cells (pifithrin-μ 10 μM, read-out: IC50 in the presence of pifithrin-μ), around 30 µM. Besides, the “effect of chloroquine and IM-54 on potency” value in the data set with A2780 cells is listed as “little effect”. For the same molecule, the “effect of p53 inhibitors on toxicity” value in the data set on A2780 cells is on record as “increased significantly”. The “effect of salubrinal on toxicity” value in the data set on A2780 cells (salubrinal 10 μM) is reported as “limited effect”. Also, in data set [1], the “log P (water-octanol coefficient)” value turned out to be 1.26. Moreover, the “effect on pUC19 DNA in gel electrophoresis” value with pUC19 plasmid DNA was “induced conformational changes and degradation of circular DNA”.

Regarding `[N]#[Os]1([Cl])([Cl])([Cl])[N]2C=CC(c3ccccc3)=c3ccc4c(c32)[N]1C=CC=4c1ccccc1` [Complex 4, OsN(4,7-diphenyl-1,10-phenanthroline)Cl3], in the data set with A2780 cells, the “effect of chloroquine and IM-54 on potency” value is recorded as “little effect”; the “effect of p53 inhibitors on toxicity” value was “unaffected”. Besides, the “IC50 increase on co-administration of salubrinal compared to compound alone” value in the data set on A2780 cells (salubrinal 10 μM) is 13.3 fold. Besides, the “log P (water-octanol coefficient)” value in data set [1] is reported as 1.84. Moreover, the “effect on pUC19 DNA in gel electrophoresis” value with pUC19 plasmid DNA is on record as “no visible effect”.
